Test results reported in patent US4755525A, “2-(fluoroalkyl)-benzimidazoles as inhibitors of 5-lipoxygenase” (Beecham Group p.l.c., priority 1985, dated 1988).
Where a name gives a salt, the structure may show the parent alone.

Tests used:
[1] = molecular target: T1, 5-Lipoxygenase enzyme from RBL-1 cells (Rattus norvegicus, UniProt P12527); experiment: RBL-1 5-lipoxygenase screen (cell free); type: biochemical; details: read-out: percentage inhibition of 5-lipoxygenase
T1 construct: prepared as a 10,000 g supernatant from RBL-1 cells; endogenous in cells; host or cells: RBL-1 cells (10,000 g supernatant)
T1 sequence (P12527 1-673): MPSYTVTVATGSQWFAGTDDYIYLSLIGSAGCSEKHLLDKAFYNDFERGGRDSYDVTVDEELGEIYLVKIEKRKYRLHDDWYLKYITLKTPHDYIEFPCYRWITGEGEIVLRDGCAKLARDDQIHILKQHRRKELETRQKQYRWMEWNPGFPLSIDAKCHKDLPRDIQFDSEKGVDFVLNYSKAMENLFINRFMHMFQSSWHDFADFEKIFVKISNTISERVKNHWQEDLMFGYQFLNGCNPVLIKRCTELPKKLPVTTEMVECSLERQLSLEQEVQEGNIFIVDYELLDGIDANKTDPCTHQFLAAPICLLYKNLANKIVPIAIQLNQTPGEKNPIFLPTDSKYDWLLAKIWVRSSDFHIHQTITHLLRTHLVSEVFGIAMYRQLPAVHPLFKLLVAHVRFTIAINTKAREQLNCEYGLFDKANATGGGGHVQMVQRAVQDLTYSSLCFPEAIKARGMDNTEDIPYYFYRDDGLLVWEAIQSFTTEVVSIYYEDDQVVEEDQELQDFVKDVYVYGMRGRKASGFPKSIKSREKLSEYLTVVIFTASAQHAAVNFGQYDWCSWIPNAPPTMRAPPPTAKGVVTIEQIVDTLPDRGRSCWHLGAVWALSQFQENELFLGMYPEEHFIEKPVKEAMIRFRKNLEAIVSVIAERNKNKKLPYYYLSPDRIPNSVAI
Description: RBL-1 5-LIPOXYGENASE SCREEN
5-Lipoxygenase enzyme was prepared as a 10,000 g supernatant from RBL-1 cells by the method of Jakschik [Jakschik, B. A., F. F. Sun, L. M. Lee, and M. M. Steinhoff, 1980, Biochem. Biophys. Res. Comm. 95, 103]. The 10,000 g supernatant was diluted with homogenization buffer to the equivalent of 1.5-2.5×10^7 cells. ml^-1 and made 2 mM with respect to CaCl2. Aliquots of 0.5 ml were then dispensed into tubes, and incubated at 29° C. with 5 μl ethanol or compound in ethanol at the desired concentration for 2 min. Then […] arachidonic acid was added in buffer to give a final concentration of 6.3 μM and 0.2 μCi per incubation, and the reaction continued at 29° C. for 2 min. The reaction was terminated by adding 1 ml of acetone and cooling on ice, 0.5 ml of ice-cold saline and 10 μl of 2N formic acid were added, and the mixture was extracted with 2×2 ml of chloroform. The extract was stored under N2 at -20° C. until analysis by chromatography. Activity was measured as the percentage of total radioactivity found in 5-HETE and 5,12-diHETE, and inhibition calculated as the decrease in formation of the sum of these two species in compound-treated incubates relative to control incubates.
This test is used to show inhibition of the 5-lipoxygenase enzyme in a mammalian RBL-1 cell free 5-lipoxygenase assay.

[2] = test system: carrageenin-induced pleurisy; experiment: Carrageenin-induced pleurisy in the rat; type: in vivo; details: dose of 25 mg/kg p.o., given 1 hour before and 24 and 48 hours after carrageenin
Description: CARRAGEENIN-INDUCED PLEURISY IN THE RAT
This model of monocyte accumulation is based on the method of R. Vinegar, J. F. Truax, J. L. Selph and F. A. Voelker [Federation Proceeding 41, 2588-2595, 1982].
0.2 ml of a 2.0% solution of λ-carrageenin (Viscarin 402) in saline was injected intrapleurally in anaesthetised rats (wt. approx. 175-200 g). Compounds were administered 1 hour before carrageenin and at 24 and 48 hours after carrageenin. 72 hours after carrageenin injection, 4.0 ml of EDTA solution (5 g EDTA in 100 ml of 0.9% saline and 325 mg phenol red added together with saline to 1 liter) was injected intrapleurally after killing the animals, and the exudate removed with a syringe through the diaphragm. Exudate volume was measured spectrophotometrically (560 nm) and cellular content estimated with a DNA assay [Karsten U. and Wollenberger A. Anal. Biochem. 77, 464-470, 1977].
This test is used to indicate anti-inflammatory activity against carrageenin-induced pleurisy in the rat. The compound of Example 1 was active at a dose of 25 mg/kg (p.o.).

Compound | inhibition at 20 µM ([1]; 20 μM concentration) | anti-inflammatory activity against carrageenin-induced pleurisy in the rat [2] | inhibition at 1 µM ([1]; 1 μM concentration)
Cc1ccc(O)c2[nH]c(C(F)(F)F)nc12 [Example 2, 4-Hydroxy-7methyl-2-trifluoromethylbenzimidazole hydrochloride hydrate (4:4:1)] | 68% |  | 
Cc1cc(C(C)(C)C)c(O)c2[nH]c(C(F)(F)F)nc12 [Example 1, 5-tert-Butyl-4-hydroxy-7-methyl-2-trifluoro-methylbenzimidazole] |  | active | 93%
